Measurements taken from patent publication US9476099B2 (TRUSTEES OF DARTMOUTH COLLEGE, priority 2012, dated 2016).

System: gene promoters in NT2/D1-R1 control and DNMT3B knockdown cells
Test: Genome-wide promoter methylation analysis, HumanMethylation27 BeadChip (Table 15)
Format: cell-based, human
Conditions: sh-3b + 5aza
Method: DNA methylation analysis was performed in samples in triplicate using the […] […] assay with the HumanMethylation27 BeadChip ([…]) and the BeadChip was scanned on the BeadArray Reader ([…]), according to the manufacturer's instructions. Raw data was normalized and analyzed with Genome Studio software ([…]). The HumanMethylation27 BeadChip assays 27,578 CpGs covering more than 14,000 genes, mostly from promoter regions. […] Hierarchical clustering was performed as stated above. HumanMethylation27 BeadChip data and gene expression microarray data were submitted to NCBI GEO.

Compound: Nc1ncn([C@H]2C[C@H](O)[C@@H](CO)O2)c(=O)n1 [5aza]
- SERPING1 cg12783776 promoter methylation Mean: 0.350
- SFRS16 cg19317638 promoter methylation Mean: 0.369
- SFXN3 cg04880063 promoter methylation Mean: 0.188
- SH3BGRL2 cg03080985 promoter methylation Mean: 0.260
- SHH cg25167838 promoter methylation Mean: 0.127
- SKIP cg04072323 promoter methylation Mean: 0.310
- SLC30A2 cg05674944 promoter methylation Mean: 0.337
- SMCP cg09542291 promoter methylation Mean: 0.504
- SNX9 cg26845300 promoter methylation Mean: 0.722
- SOX17 cg21226224 promoter methylation Mean: 0.495
- SPRR1B cg24884084 promoter methylation Mean: 0.334
- SSH1 cg11747499 promoter methylation Mean: 0.292
- SSTR1 cg27590397 promoter methylation Mean: 0.900
- TAC1 cg07550362 promoter methylation Mean: 0.507
- TADA3L cg09279263 promoter methylation Mean: 0.350
- TERT cg02545192 promoter methylation Mean: 0.311
- TNFSF10 cg16555388 promoter methylation Mean: 0.430
- TNRC4 cg26093148 promoter methylation Mean: 0.661
- TNRC15 cg07230446 promoter methylation Mean: 0.243
- TRAF3 cg24165760 promoter methylation Mean: 0.797
- TRIM2 cg12793610 promoter methylation Mean: 0.506
- TRIM36 cg10693071 promoter methylation Mean: 0.545
- TRPM3 cg20555507 promoter methylation Mean: 0.291
- UNC5D cg00297600 promoter methylation Mean: 0.384
- WDR13 cg25053301 promoter methylation Mean: 0.211
- ZFHX1B cg15377518 promoter methylation Mean: 0.472
- ZNF222 cg09757277 promoter methylation Mean: 0.355
- cg07512517 promoter methylation Mean: 0.473
- Mean promoter methylation, ABCA3 cg02331561 (DNMT3B knockdown cells): 0.145
- Mean promoter methylation, ABLIM3 cg05026186 (DNMT3B knockdown cells): 0.240
- Mean promoter methylation, ACTL6B cg08572611 (DNMT3B knockdown cells): 0.138
- Mean promoter methylation, ANKRD46 cg23737055 (DNMT3B knockdown cells): 0.257
- Mean promoter methylation, ARNT2 cg17788682 (DNMT3B knockdown cells): 0.139
- Mean promoter methylation, B4GALNT3 cg05769161 (DNMT3B knockdown cells): 0.271
- Mean promoter methylation, BTBD1 cg16958189 (DNMT3B knockdown cells): 0.259
- Mean promoter methylation, C1RL cg22593785 (DNMT3B knockdown cells): 0.188
- Mean promoter methylation, C10orf10 cg17186163 (DNMT3B knockdown cells): 0.237
- Mean promoter methylation, C10orf72 cg02569613 (DNMT3B knockdown cells): 0.312
- Mean promoter methylation, C12orf34 cg01335367 (DNMT3B knockdown cells): 0.420
- Mean promoter methylation, C17orf40 cg18042079 (DNMT3B knockdown cells): 0.213
- Mean promoter methylation, C19orf30 cg07456645 (DNMT3B knockdown cells): 0.254
- Mean promoter methylation, C20orf29 cg09158909 (DNMT3B knockdown cells): 0.226
- Mean promoter methylation, C22orf9 cg11221513 (DNMT3B knockdown cells): 0.229
- Mean promoter methylation, CACNA1G cg18454685 (DNMT3B knockdown cells): 0.286
- Mean promoter methylation, CAMKK2 cg01369981 (DNMT3B knockdown cells): 0.191
- Mean promoter methylation, CART cg23300372 (DNMT3B knockdown cells): 0.160
- Mean promoter methylation, CCKBR cg13346411 (DNMT3B knockdown cells): 0.197
- Mean promoter methylation, CDC42EP1 cg13951472 (DNMT3B knockdown cells): 0.217
- Mean promoter methylation, CDKN2A cg10895543 (DNMT3B knockdown cells): 0.168
- Mean promoter methylation, CHST8 cg24739326 (DNMT3B knockdown cells): 0.319
- Mean promoter methylation, CPSF1 cg20326853 (DNMT3B knockdown cells): 0.241
- Mean promoter methylation, CSMD1 cg22619018 (DNMT3B knockdown cells): 0.201
- Mean promoter methylation, DCTN3 cg22579849 (DNMT3B knockdown cells): 0.325
- Mean promoter methylation, DDX42 cg05797656 (DNMT3B knockdown cells): 0.192
- Mean promoter methylation, DGKD cg25506396 (DNMT3B knockdown cells): 0.202
- Mean promoter methylation, DGKI cg06277657 (DNMT3B knockdown cells): 0.190
- Mean promoter methylation, DKK2 cg01404615 (DNMT3B knockdown cells): 0.398
- Mean promoter methylation, DUSP8 cg02271621 (DNMT3B knockdown cells): 0.135
- Mean promoter methylation, EHD2 cg12603043 (DNMT3B knockdown cells): 0.176
- Mean promoter methylation, ELK1 cg21860846 (DNMT3B knockdown cells): 0.181
- Mean promoter methylation, EMP3 cg01795122 (DNMT3B knockdown cells): 0.127
- Mean promoter methylation, EYA4 cg01805282 (DNMT3B knockdown cells): 0.174
- Mean promoter methylation, FAM70B cg15350194 (DNMT3B knockdown cells): 0.222
- Mean promoter methylation, FAM73B cg00729541 (DNMT3B knockdown cells): 0.213
- Mean promoter methylation, FCHSD2 cg17114257 (DNMT3B knockdown cells): 0.179
- Mean promoter methylation, FLJ20273 cg01704534 (DNMT3B knockdown cells): 0.222
- Mean promoter methylation, FLJ20273 cg15967525 (DNMT3B knockdown cells): 0.362
- Mean promoter methylation, FLJ42486 cg03734874 (DNMT3B knockdown cells): 0.287
- Mean promoter methylation, GAB3 cg12938998 (DNMT3B knockdown cells): 0.235
- Mean promoter methylation, GALR1 cg04534765 (DNMT3B knockdown cells): 0.176
- Mean promoter methylation, GCN5L2 cg08434547 (DNMT3B knockdown cells): 0.249
- Mean promoter methylation, GNAS cg00943909 (DNMT3B knockdown cells): 0.097
- Mean promoter methylation, HBQ1 cg07703401 (DNMT3B knockdown cells): 0.220
- Mean promoter methylation, HCN1 cg11285003 (DNMT3B knockdown cells): 0.202
- Mean promoter methylation, HES6 cg24127874 (DNMT3B knockdown cells): 0.377
- Mean promoter methylation, HEYL cg25462291 (DNMT3B knockdown cells): 0.218
- Mean promoter methylation, HRH3 cg08186362 (DNMT3B knockdown cells): 0.297
- Mean promoter methylation, ICAM1 cg22874046 (DNMT3B knockdown cells): 0.144
- Mean promoter methylation, ID2 cg23525180 (DNMT3B knockdown cells): 0.201
- Mean promoter methylation, IGFBP3 cg04796162 (DNMT3B knockdown cells): 0.230
- Mean promoter methylation, KATNB1 cg15153383 (DNMT3B knockdown cells): 0.265
- Mean promoter methylation, KCNAB1 cg23873703 (DNMT3B knockdown cells): 0.334
- Mean promoter methylation, KCNC2 cg18573383 (DNMT3B knockdown cells): 0.159
- Mean promoter methylation, KIAA1822 cg02867079 (DNMT3B knockdown cells): 0.345
- Mean promoter methylation, KIAA1840 cg06121469 (DNMT3B knockdown cells): 0.191
- Mean promoter methylation, KRTCAP2 cg11278262 (DNMT3B knockdown cells): 0.257
- Mean promoter methylation, LGALS1 cg00292662 (DNMT3B knockdown cells): 0.230
- Mean promoter methylation, LGR6 cg23578193 (DNMT3B knockdown cells): 0.187
- Mean promoter methylation, LOX cg06508445 (DNMT3B knockdown cells): 0.101
- Mean promoter methylation, MAP6D1 cg03705396 (DNMT3B knockdown cells): 0.201
- Mean promoter methylation, MGC9850 cg21097640 (DNMT3B knockdown cells): 0.218
- Mean promoter methylation, MRPL38 cg11653266 (DNMT3B knockdown cells): 0.155
- Mean promoter methylation, MT cg14078309 (DNMT3B knockdown cells): 0.154
- Mean promoter methylation, MYOD1 cg18555440 (DNMT3B knockdown cells): 0.321
- Mean promoter methylation, OGG1 cg25415932 (DNMT3B knockdown cells): 0.240
- Mean promoter methylation, OR10J1 cg25076881 (DNMT3B knockdown cells): 0.335
- Mean promoter methylation, OSTbeta cg16029760 (DNMT3B knockdown cells): 0.144
- Mean promoter methylation, PABPC4 cg12585282 (DNMT3B knockdown cells): 0.221
- Mean promoter methylation, PDE8B cg18089852 (DNMT3B knockdown cells): 0.130
- Mean promoter methylation, PHLDA2 cg01263716 (DNMT3B knockdown cells): 0.248
- Mean promoter methylation, PHLDA2 cg04720330 (DNMT3B knockdown cells): 0.195
- Mean promoter methylation, PIB5PA cg18053607 (DNMT3B knockdown cells): 0.247
- Mean promoter methylation, PLOD1 cg23286660 (DNMT3B knockdown cells): 0.235
- Mean promoter methylation, PPCDC cg11632617 (DNMT3B knockdown cells): 0.269
- Mean promoter methylation, PRDM12 cg09191327 (DNMT3B knockdown cells): 0.240
- Mean promoter methylation, PRMT8 cg23739862 (DNMT3B knockdown cells): 0.116
- Mean promoter methylation, PTPRO cg19402885 (DNMT3B knockdown cells): 0.303
- Mean promoter methylation, PTPRO cg27196745 (DNMT3B knockdown cells): 0.267
- Mean promoter methylation, R3HDML cg17692403 (DNMT3B knockdown cells): 0.288
- Mean promoter methylation, RAB37 cg12448933 (DNMT3B knockdown cells): 0.241
- Mean promoter methylation, RASA4 cg05749161 (DNMT3B knockdown cells): 0.102
- Mean promoter methylation, RASL11A cg06611744 (DNMT3B knockdown cells): 0.208
- Mean promoter methylation, SCAMP3 cg01745448 (DNMT3B knockdown cells): 0.209
- Mean promoter methylation, SCARA5 cg10171125 (DNMT3B knockdown cells): 0.239
- Mean promoter methylation, SEC14L2 cg14452140 (DNMT3B knockdown cells): 0.337
- Mean promoter methylation, SH3BGRL3 cg03100146 (DNMT3B knockdown cells): 0.341
- Mean promoter methylation, SHH cg00577464 (DNMT3B knockdown cells): 0.212
- Mean promoter methylation, SLC6A5 cg20632573 (DNMT3B knockdown cells): 0.192
- Mean promoter methylation, SLC25A22 cg02973416 (DNMT3B knockdown cells): 0.318
- Mean promoter methylation, SLC35C2 cg02413850 (DNMT3B knockdown cells): 0.155
- Mean promoter methylation, SLIT1 cg07143898 (DNMT3B knockdown cells): 0.176
- Mean promoter methylation, SORCS3 cg16787600 (DNMT3B knockdown cells): 0.384
- Mean promoter methylation, SOX15 cg01029592 (DNMT3B knockdown cells): 0.171
- Mean promoter methylation, SOX15 cg13098960 (DNMT3B knockdown cells): 0.261
- Mean promoter methylation, SOX17 cg02919422 (DNMT3B knockdown cells): 0.329
- Mean promoter methylation, STXBP3 cg11666924 (DNMT3B knockdown cells): 0.194
- Mean promoter methylation, SUSD2 cg23349242 (DNMT3B knockdown cells): 0.329
- Mean promoter methylation, TBXA2R cg09998229 (DNMT3B knockdown cells): 0.256
- Mean promoter methylation, THAP3 cg11688219 (DNMT3B knockdown cells): 0.344
- Mean promoter methylation, TMEM25 cg20001829 (DNMT3B knockdown cells): 0.238
- Mean promoter methylation, TMEM106C cg25884854 (DNMT3B knockdown cells): 0.229
- Mean promoter methylation, TRAPPC1 cg01667702 (DNMT3B knockdown cells): 0.231
- Mean promoter methylation, UBA52 cg24356797 (DNMT3B knockdown cells): 0.145
- Mean promoter methylation, UNQ2446 cg10574499 (DNMT3B knockdown cells): 0.218
- Mean promoter methylation, VPREB1 cg18441959 (DNMT3B knockdown cells): 0.230
- Mean promoter methylation, ZGPAT cg04078896 (DNMT3B knockdown cells): 0.191
- Mean promoter methylation, ZGPAT cg18611245 (DNMT3B knockdown cells): 0.379
- Mean promoter methylation, ZNF585B cg03751813 (DNMT3B knockdown cells): 0.182
- Mean promoter methylation, ZNF702 cg07559730 (DNMT3B knockdown cells): 0.221
